According to patent publication US4195179A, “5-(Indol-3-ylmethylene)-1,3-dimethyl-2-methylamino-4-imidazolidinone” (Hoffmann-La Roche Inc., priority 1976, dated 1980):

Legend:
acute toxicity (LD50) = details: mouse, in vivo
[1] = test system: tetrabenazine induced ptosis; experiment: antagonism of tetrabenazine induced ptosis; assay type: in vivo; details: Mus musculus, 1 h; oral, male mice; tetrabenazine methanesulfonate 100 mg/kg one hour after test compound; ptosis observed one hour later
Experimental: Groups of 10 mice each are administered tetrabenazine methanesulfonate at a dose of 100 mg/kg., one hour after oral administration of the test compound. One hour after tetrabenazine administration, each mouse is observed for the presence or absence of ptosis. An ED50 value for the antagonism of tetrabenazine induced ptosis is then determined.

SMILES | LD50 (acute toxicity (LD50); ip) | LD50 (acute toxicity (LD50); po) | ED50 [1]
C/N=C1/N(C)C(=O)/C(=C\c2c[nH]c3ccccc23)N1C [(E)-5-(indol-3-ylmethylene)-1,3-dimethyl-2-methylimino-4-imidazolidinone] | 670 mg/kg | 900 mg/kg | 5 mg/kg
COc1ccc2c3c([nH]c2c1)C(C)=NCC3 [harmaline] | 120 mg/kg | 380 mg/kg | –
C#CCN(C)Cc1ccccc1 [pargyline] | 390 mg/kg | 720 mg/kg | –
